# Source: patent US7915293B2, “Ubiquitin ligase inhibitors” (Rigel Pharmaceuticals, Inc., priority 2003, dated 2011)
# Columns and labels:
# Design in all cases: key: “+” indicates that the compound exibits inhibitory activity; “−” indicates that low or no inhibitory activity was observed
# [1] = molecular target: E3 (His-APC11/APC2-"APC") (Homo sapiens, UniProt Q9NYG5+Q9UJX6); experiment: Plate-based E3 ligase assay (APC FLAG), auto-ubiquitination; assay type: biochemical; conditions: 8 concentrations tested
# E3 (His-APC11/APC2-"APC"), sequence (Q9NYG5 whole entry): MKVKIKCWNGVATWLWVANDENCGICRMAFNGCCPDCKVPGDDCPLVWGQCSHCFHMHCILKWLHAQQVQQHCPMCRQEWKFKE
# E3 (His-APC11/APC2-"APC"), sequence (Q9UJX6 whole entry): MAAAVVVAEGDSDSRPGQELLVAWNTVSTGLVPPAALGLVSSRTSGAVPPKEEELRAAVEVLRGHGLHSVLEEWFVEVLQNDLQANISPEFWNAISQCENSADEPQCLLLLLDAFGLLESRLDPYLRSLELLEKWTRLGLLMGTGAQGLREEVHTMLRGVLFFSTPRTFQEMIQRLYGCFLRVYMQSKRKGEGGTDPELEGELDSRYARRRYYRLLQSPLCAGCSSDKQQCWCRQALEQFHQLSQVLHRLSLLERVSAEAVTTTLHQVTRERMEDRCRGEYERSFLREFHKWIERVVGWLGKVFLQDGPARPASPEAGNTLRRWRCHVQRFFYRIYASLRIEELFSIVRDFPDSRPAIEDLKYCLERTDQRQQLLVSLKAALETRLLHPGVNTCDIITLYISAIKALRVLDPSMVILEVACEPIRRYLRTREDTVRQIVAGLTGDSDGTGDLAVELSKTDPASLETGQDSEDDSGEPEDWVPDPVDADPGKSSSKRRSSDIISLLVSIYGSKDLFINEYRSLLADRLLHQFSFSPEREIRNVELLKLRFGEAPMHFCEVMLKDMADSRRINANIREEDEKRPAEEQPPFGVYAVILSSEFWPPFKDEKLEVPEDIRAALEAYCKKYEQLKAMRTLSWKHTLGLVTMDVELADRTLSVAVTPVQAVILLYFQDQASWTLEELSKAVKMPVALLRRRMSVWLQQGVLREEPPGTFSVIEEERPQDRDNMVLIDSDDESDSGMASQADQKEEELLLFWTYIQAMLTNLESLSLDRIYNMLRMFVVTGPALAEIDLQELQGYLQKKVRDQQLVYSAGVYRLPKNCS
# Summary of the method: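 His-APC11/APC2 auto-ubiquitination was run in casein-blocked nickel plates for 1 h at room temperature, with E1 at 5 ng/well, UbcH5c at 20 ng/well and APC at 100 ng/well. Buffer was 62.5 mM Tris pH 7.6, 3 mM MgCl2, 1 mM DTT, 2.5 mM ATP and Flag-ubiquitin at 100 ng/well. Detection used anti-Flag/HRP chemiluminescence, and IC50 was typically from 6 or 8 concentrations versus a DMSO control.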
# MDM2 / p53 substrate = MDM2 / p53 substrate (Homo sapiens, UniProt Q00987); experiment: Plate-based MDM2 substrate ligation assay (MDM2-P53-FLAG); assay type: biochemical; conditions: 8 concentrations tested
# MDM2 / p53 substrate, sequence (Q00987 whole entry): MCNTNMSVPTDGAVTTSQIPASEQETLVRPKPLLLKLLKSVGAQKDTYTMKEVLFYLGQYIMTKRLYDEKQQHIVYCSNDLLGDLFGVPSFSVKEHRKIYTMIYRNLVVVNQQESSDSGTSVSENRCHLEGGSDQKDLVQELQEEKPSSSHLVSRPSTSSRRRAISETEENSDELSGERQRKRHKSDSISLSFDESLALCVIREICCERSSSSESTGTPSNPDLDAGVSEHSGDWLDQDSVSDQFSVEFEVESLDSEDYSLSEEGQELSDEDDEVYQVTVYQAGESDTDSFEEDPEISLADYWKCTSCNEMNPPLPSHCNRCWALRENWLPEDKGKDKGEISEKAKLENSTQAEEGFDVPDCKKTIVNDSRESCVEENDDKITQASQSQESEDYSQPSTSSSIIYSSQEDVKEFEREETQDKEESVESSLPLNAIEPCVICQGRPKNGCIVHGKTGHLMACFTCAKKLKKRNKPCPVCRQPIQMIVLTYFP
# From the text: This assay was preformed essentially as described in WO 03/076899 (page 77, line 5 to page 80, line 13), hereby incorporated by reference in its entirety.
# HCT116 cells [2] = experiment: Non-photographic proliferation analysis (Promega Cell titer Aqueous), HCT116; assay type: cell-based; conditions: 6 concentrations tested
# Protocol: A549 (ATCC# CCL-185), HeLa (ATCC# CCL-2), HCT116 (ATCC# CCL-247), and H1299 (ATCC# CRL-5803) cells were maintained in T175 flasks following the ATCC recommended media and handling procedures. Flasks reaching approximately 70% confluency were trypsinized and resuspended in RPMI media (Cell-Gro catalog number 10-040-CM) modified to contain 5% FBS, 100 ug/mlPen/Strep (Cell-Gro catalog number 30-002-CL), and 0.3 mg/ml L-Glutamine (Cell-Gro catalog number 25-003-CL). A 20,000 cells/ml solution was made for plating. Cells were plated in black Packard 96 well plates by placing 100 μl per well (2,000 cells per well).
# Compounds and additional media were added 24 hours after cell plating. A compound master plate was created with concentrations 500 times greater than the final concentration added to the cells. All compound testing was done in duplicate using 6.3 fold dilutions starting with 10 mM. All outside wells (and 4 internal wells) were DMSO controls. Taxol and at least one additional control were run on all plates. Three microliters of the compound master plate were added to deep well blocks containing 750 μl of RPMI media. One hundred microliters were transferred from the compound/media deep well blocks to the plated cells resulting in a 500 fold dilution of the compounds. Cells were grown at 37° C., 5% CO2 for 48 hours.
# Some cell plates were treated with Promega Cell titer Aqueous 1 kit (promega—VWR catalog number G3580). In this case, 48 hours after the test compound were added, 100 μl of media were removed and 20 μl of cell titer reagent were added to all wells. Plates were incubated at 37° C. for 45 minutes prior to absorbance reads on the Wallac plate reader at 490 nm for 0.1 sec/well.
# E3 MDM2 = E3 MDM2 (Homo sapiens, UniProt Q00987); experiment: Plate-based autoubiquitination of the E3 MDM2 (MDM2-FLAG); assay type: biochemical; conditions: 8 concentrations tested
# E3 MDM2, sequence (Q00987 whole entry): as above
# Protocol: E3 (His-APC11/APC2-“APC”) auto-ubiquitination was measured as described in U.S. patent application Ser. No. 09/826,312 (Publication No. US-2002-0042083-A1), which is incorporated herein in its entirety. Details of the protocol are described below. Activity in the presence of the compound was determined relative to a parallel control in which only DMSO was added. Values of the IC50 were typically determined using 6 or 8 different concentrations of the compound, although as few as 2 concentrations may be used to approximate the IC50 value.
# Nickel-coated 96-well plates (Pierce 15242) were blocked for 1 hour with 100 μl of blocking buffer at room temperature. The plates were washed 4 times with 225 μl of 1×PBS and 80 μl of the reaction buffer were added that contained 100 ng/well of Flag-ubiquitin. To this, 10 μl of the test compound diluted in DMSO were added. After the test compound was added, 10 μl of E1 (human), E2 (Ubch5c), and APC in Protein Buffer was added to obtain a final concentration of 5 ng/well of E1, 20 ng/well of E2 and 100 ng/well of APC. The plate were shaken for 10 minutes and incubated at room temperature for 1 hour. After incubation, the plates were washed 4 times with 225 μl of 1×PBS and 100 μl/well of Antibody Mix were added to each well. The plates were incubate at room temperature for another hour after which they were washed 4 times with 225 μl of 1×PBS and 100 μl/well of Lumino substrate were added to each well. The luminescence was measured by using a BMG luminescence microplate reader.
# To prepare the Blocking Buffer (1 liter; 1% Casein in 1×PBS), 10 grams of Casein (Hammersten Grade Casein from Gallard-Schlesinger Inc. #440203) were placed into 1 liter of 1×PBS, stirred on a hot plate and kept between 50-60° C. for an hour. The buffer was allowed to cool to room temperature and then filtered using a Buchner Funnel (Buchner filter funnel 83 mm 30310-109) and Whatman filter paper (Whatman Grade No. 1 Filter paper 28450-070). It was stored at 4° C. until used.
# The reaction buffer consisted of 62.5 mM Tris pH 7.6 (Trizma Base—Sigma T-8524), 3 mM MgCl2 (Magnesium Chloride—Sigma M-2393), 1 mM DTT (Sigma D-9779), 2.5 mM ATP (Roche Boehringer Mann Corp. 635-316), 100 ng/well of Flag-ubiquitin, 0.1% BSA (Sigma A-7906), and 0.05% Tween-20 (Sigma P-7949).
# The Protein Buffer consisted of 20 mM Tris pH 7.6, 10% glycerol (Sigma G-5516) and 1 mM DTT.
# The antibody mix consisted of 0.25% BSA (Sigma A-7906) in 1×PBS, 1/50,000 anti-Flag (Sigma F-3165), 1/100,000 of anti-Mouse IgG-HRP (Jackson Immunoresearch #115-035-146).
# The substrate mix consisted of SuperSignal Substrate from Pierce (catalog number 37070ZZ) and was prepared by mixing 100 ml of the peroxide solution, 100 ml of the enhancer solution and 100 ml of Milli-Q® water.
# In similar manner, autoubiquitination of the E3 MDM2 was determined (MDM2-FLAG). Further instruction in such assays can be found in U.S. patent application Ser. No. 10/108,767 (Publication No. US-2003-0104474 A1), which is incorporated herein in its entirety.
# HeLa cells [3] = experiment: Non-photographic proliferation analysis (Promega Cell titer Aqueous), HeLa; assay type: cell-based; conditions: 6 concentrations tested
# Summary of the method: (§1)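 HeLa, A549 and HCT116 cells, 2,000 per well in RPMI with 5% FBS, were given compounds 24 h after plating as 6.3-fold duplicate dilutions from 10 mM stock, diluted 500-fold into the wells. After 48 h at 37° C, 5% CO2, Cell titer Aqueous reagent was added for 45 min and absorbance read at 490 nm.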
# HeLa cells [4] = experiment: Cell proliferation assay, photographic image analysis of proliferation, apoptosis and death (PAD assay), HeLa; assay type: cell-based; conditions: 6 concentrations tested
# Summary of the method: (§2)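 Cells grown in RPMI with 5% FBS (2,000/well) and dosed 24 h after plating with 6.3-fold dilutions in duplicate (master plate 500× final, top 10 mM stock). After 48 h at 37 °C, cells formamide-fixed and DAPI-stained. Image analysis counted live, apoptotic and dead cells.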
# A549 cells [5] = experiment: Non-photographic proliferation analysis (Promega Cell titer Aqueous), A549; assay type: cell-based; conditions: 6 concentrations tested
# Summary of the method: as §1
# A549 cells [6] = experiment: Cell proliferation assay, photographic image analysis of proliferation, apoptosis and death (PAD assay), A549; assay type: cell-based; conditions: 6 concentrations tested
# Summary of the method: as §2
# HCT116 cells [7] = experiment: Cell proliferation assay, photographic image analysis of proliferation, apoptosis and death (PAD assay), HCT116; assay type: cell-based; conditions: 6 concentrations tested
# Summary of the method: as §2
SMILES,APC Flag 8 pt [1],MDM2-P53 Flag 8 pt (MDM2 / p53 substrate),"Cell Titer-Aqueous, HCT116 6 pt (HCT116 cells [2])",MDM2-Auto Flag 8 pt (E3 MDM2),"Cell Titer-Aqueous, HELA 6 pt (HeLa cells [3])","PAD Assay, HELA 6 pt (HeLa cells [4])","Cell Titer-Aqueous, A549 6 pt (A549 cells [5])","PAD Assay, A549 6 pt (A549 cells [6])","PAD Assay, HCT116 6 pt (HCT116 cells [7])"
"O=[N+]([O-])c1ccc(Oc2c(Cl)cc(S(=O)(=O)/N=C(\NO)Nc3ccc(Cl)cc3)cc2Cl)c(Cl)c1 [Example 58, 3,5-dichloro-4-(2-chloro-4-nitrophenoxy)-N-[(1Z)-[(4-chlorophenyl)amino](hydroxy-amino)methylene]benzenesulfonamide]",+,+,+,+,+,+,+,+,
"O=[N+]([O-])c1ccc(Oc2c(Cl)cc(S(=O)(=O)Nc3cc([N+](=O)[O-])ccc3F)cc2Cl)c(Cl)c1 [Compound 220, 3,5-dichloro-4-(2-chloro-4-nitrophenoxy)-N-(2-fluoro-5-nitrophenyl)benzene sulfonamide]",+,−,,+,+,+,+,+,+
O=[N+]([O-])c1ccc(Oc2c(Cl)cc(S(=O)(=O)Nc3cc(Br)cc(Br)n3)cc2Cl)c(Cl)c1 [Compound 218],+,+,,+,+,+,+,−,−
